Reference: patent US20170292961A1, “SYSTEMS AND METHODS FOR ASSESSING INTER-CELL COMMUNICATION” (Q-STATE BIOSCIENCES, INC., priority 2014, published 2017)
Where a chain is given by its changes, count along the chain named. Names and notes keep the numbering of the source. Values joined by “and” are separate entries in the source; they are usually repeats but may differ in a detail not shown here. Equal values may be shown once. Read-outs that look alike come from different tables or passages of the source. Blank lines part the entries; values can stand above or below the molecule they belong to.

Legend:
[1] = test system: estrogen sulfotransferase; settings: pathway of metabolism of birth control pill ingredients; cited from earlier work
patient-derived neurons = experiment: Spike frequency of patient-derived neurons exposed to an anticonvulsant; type: cell-based; settings: for spike frequency: in DMSO versus DMSO alone
From the text: FIG. 52 illustrates the results of exposing patient-derived neurons to acute doses of an anticonvulsant. A frequency of spiking is plotted over unitless scaled stimulus strength. Angled vertical lines are drawn onto the graph to aid in showing which data points correspond to one another. Asterisks are used to indicate a significance of a difference. […] FIG. 53 illustrates the results of exposing patient-derived neurons to chronic doses of an anticonvulsant. A frequency of spiking is plotted over unitless scaled stimulus strength. After exposure to STR in DMSO (versus exposure to the DMSO alone), spike frequency is decreased. […] Thus it can be seen that methods and compositions of the invention may be used to evaluate signal propagation between cells such as cardiomyocytes or neurons.

neurons = test system: neurons
From the text: Methods of the invention may be used to evaluate the effects of compounds on neurons. In some embodiments, the cells that include the optical voltage reporter are neurons and those neurons are exposed to a voltage-gated potassium channel blocker such as tetraethylammonium.

membrane voltage [2] = settings: literature indicators; cited from earlier work
HEK 293T cells = experiment: Arch fluorescence versus membrane potential in HEK cells under whole-cell voltage clamp; type: cell-based, human
From the text: An optical reporter such as Arch 3 may be expressed in human embryonic kidney 293 (HEK293T) cells. Fluorescence of Arch 3 in HEK 293T cells was readily imaged in an inverted fluorescence microscope with red illumination (=640 nm, I=540 W/cm2), a high numerical aperture objective, a Cy5 filter set, and an EMCCD camera.
Fluorescence of Arch 3 in HEK 293 cells was readily imaged in an inverted fluorescence microscope with red illumination (lambda=640 nm, I=540 W/cm̂2), a high numerical aperture objective, a Cy5 filter set, and an EMCCD camera. […] Cells not expressing Arch were not fluorescent.
The fluorescence of HEK cells expressing Arch was highly sensitive to membrane potential, as determined via whole-cell voltage clamp. We developed an algorithm to combine pixel intensities in a weighted sum such that the output, was a nearly optimal estimate of membrane potential V determined by conventional electrophysiology.
The fluorescence was divided by its value at −150 mV. The fluorescence increased by a factor of 2 between −150 mV and +150 mV, with a nearly linear response throughout this range (FIG. 35). The response of fluorescence to a step in membrane potential occurred within the 500 micro s time resolution of our imaging system on both the rising and falling edge.
The overshoots on the rising and falling edges were an artifact of electronic compensation circuitry. Data were an average of 20 cycles. […] Cells not expressing Arch 3 were not fluorescent. […] Application of a sinusoidally varying membrane potential led to sinusoidally varying fluorescence; at f=1 kHz, the fluorescence oscillations retained 55% of their low-frequency amplitude (FIG. 37). Arch reported voltage steps as small as 10 mV, with an accuracy of 625 micro V/(Hz)̂(1/2) over timescales<12 s (FIG. 38). Over longer timescales laser power fluctuations and cell motion degraded the accuracy.

membrane voltage [3] = experiment: Speed and sensitivity of fluorescent voltage indicators
From the text: Membrane voltage can be measured with a precision of <1 mV in a 1 s interval. […] Arch 3 WT retains the photo-induced proton-pumping, so illumination slightly hyperpolarizes the cell. […] The voltage-indicating protein reporters, sometimes referred to as genetically encoded voltage indicators (GEVIs), may be excited with a laser at wavelengths between 590-640 nm, and the emission is in the near infrared, peaked at 710 nm.

From the text for cardiomyocytes: In some embodiments, the reporter cells also include an optical ion sensor that indicates an intracellular concentration of an ion, for example, a calcium reporter. In a preferred embodiment, the optical voltage reporter and the calcium reporter are provided together within a fusion protein. For example, the fusion protein may be CaViar which includes a calcium reporter and a voltage indicator. Using such a fusion protein, detecting the optical signal may include detecting an action potential and calcium transients.
The columns show results from increasing concentrations and each panel is fluorescence over time.

Molecule: CO[C@H]1/C=C/O[C@@]2(C)Oc3c(C)c(O)c4c(O)c(c(/C=N/N5CCN(C)CC5)c(O)c4c3C2=O)NC(=O)/C(C)=C\C=C\[C@H](C)[C@H](O)[C@@H](C)[C@@H](O)[C@@H](C)[C@H](OC(C)=O)[C@@H]1C [Rifampin]
induction of estrogen sulfotransferase [1]: induce

AP30 (cardiomyocytes): decrease | AP60 (cardiomyocytes): decrease | AP90 (cardiomyocytes): decrease | Ca amplitude (cardiomyocytes): decrease | average action potential waveform (cardiomyocytes): diverge dramatically | calcium trace (fluorescence over time) (cardiomyocytes): dramatically diminished | rise time (cardiomyocytes): increase | rise time (average, FIG. 46) (cardiomyocytes): interferes with rise time | voltage trace (fluorescence over time) (cardiomyocytes): dramatically diminished
Molecule: O=C(NCC1CCCCN1)c1cc(OCC(F)(F)F)ccc1OCC(F)(F)F (stereo not drawn) [flecainide]

AP30 (cardiomyocytes): decrease | AP60 (cardiomyocytes): decrease | AP90 (cardiomyocytes): decrease | Ca amplitude (cardiomyocytes): decrease | average action potential waveform (cardiomyocytes): AP prolongation | calcium trace (fluorescence over time) (cardiomyocytes): severely diminished | rise time (cardiomyocytes): increase | voltage trace (fluorescence over time) (cardiomyocytes): less pronounced effect
Molecule: COc1c(N2C[C@@H]3CCCN[C@@H]3C2)c(F)cc2c(=O)c(C(=O)O)cn(C3CC3)c12 [moxifloxacin]

Molecule: CC(C)(C)C(O)/C=C/c1ccc2c(c1)OCO2 (stereo not drawn) [stiripentol]
spike frequency (patient-derived neurons; acute doses): significantly decreased | spike frequency (patient-derived neurons; chronic doses): decreased | impact on spike frequency, acute versus chronic exposure (patient-derived neurons; visual comparison of FIG. 52 to FIG. 53): acute STR has a more severe impact on spike frequency than chronic exposure

Molecule: CC[N+](CC)(CC)CC [tetraethylammonium]
instantaneous firing rate (neurons; after a few seconds of increasing stimulus intensity, before vs after exposure): unexposed cells (“before”) consistently fire at a higher rate | Ahp (neurons; after exposure): change in Ahp | number of spiking cells (neurons; after exposure): reduction in the number of spiking cells | return of fluorescence to baseline (average waveform) (neurons; after exposure): does not return to baseline to the degree it did before exposure | spike height (neurons; after exposure): lower | instantaneous firing rate (neurons; lower stimulus intensities (time=0 to about 2 s), exposed cells): a few very high spikes in firing rate

Molecule: Flash
f (delta F/F per 100 mV) (membrane voltage [2]): 5.1% | response time (membrane voltage [2]): 2.8 to 85 ms

B1: Arch 3 WT: wild type Archaerhodopsin 3, light-driven proton pump from Halorubrum sodomense used as fluorescent voltage indicator (protein, UniProt P96787 7-258, looked up)
Archaerhodopsin-3: QAGYDLLGDGRPETLWLGIGTLLMLIGTFYFLVRGWGVTDKDAREYYAVTILVPGIASAAYLSMFFGIGLTEVTVGGEMLDIYYARYADWLFTTPLLLLDLALLAKVDRVTIGTLVGVDALMIVTGLIGALSHTAIARYSWWLFSTICMIVVLYFLATSLRSAAKERGPEVASTFNTLTALVLVLWTAYPILWIIGTEGAGVVGLGIETLLFMVLDVTAKVGFGFILLRSRAILGDTEAPEPSAGADVSAAD
smallest voltage steps reported (HEK 293T cells): 10 mV | fluorescence increase (factor) (HEK 293T cells; between −150 mV and +150 mV): 2 | response of fluorescence to a step in membrane potential (HEK 293T cells; rising and falling edge, time resolution of imaging system): ≤ 500 micro s | fluorescence oscillation amplitude retained relative to low-frequency amplitude (HEK 293T cells; sinusoidally varying membrane potential, f=1 kHz): 55% | step response time (HEK 293T cells; steps between −70 mV and +30 mV, resolution of imaging system): < 0.5 ms | accuracy of reported voltage (HEK 293T cells; timescales<12 s): 625 micro V/(Hz)̂(1/2) | time to 90% of step response (membrane voltage [3]): 0.6 ms | response time (membrane voltage [3]; Arch indicators): < 0.5 ms and 0.6 ms

B2: Arch D95N: Archaerhodopsin 3 with D95N mutation, voltage indicator (protein, UniProt P96787 7-258, looked up, variant D95N)
Archaerhodopsin-3: B1 Archaerhodopsin-3 with D89N
f (delta F/F per 100 mV) (membrane voltage [3]; Arch indicators): 100% | response time (membrane voltage [3]; Arch indicators): 41 ms
